# From patent US5998376A, “Substance P treatment for immunostimulation” (priority 1998, dated 1999)
# Experiments:
# [1] = system: immune system organs (spleen, lymph nodes and thymus); assay: Organ Weight and Total Cell Recovery, JP-8 exposed mice; type: in vivo, C57B16 mice; design: Spleen Weight / Thymus Weight: unit not given here
# Protocol: At 24 hours after the last exposure, the animals were sacrificed and the effects of exposure on the immune system examined. Immune organs (spleen, thymus, blood, lymph nodes and bone marrow) were recovered and analyzed for effects on organ weight, total cell numbers, immune cell populations (by differentials), and lymphocyte subpopulations (by flow cytometry). Assays were also performed to examine the effects of exposure on immune function. […] Similar effects on immune cell subpopulations were also observed in lymph nodes. In the thymus it appeared that the immature CD4^+ CD8^+ cells were differentially lost due to exposure. […] However, these effects are prevented or ameliorated by treatment of the animals with Substance P.
# Organ Weight and Total Cell Recovery: For each of the immune system organs (spleen, lymph nodes and thymus) the wet weight is determined after removal using a microbalance. After processing of the organs into single cell suspensions the cell numbers and viabilities are determined using trypan blue staining. Histochemical differentials are performed at this time. Cell numbers and viabilities are again determined after centrifugation of the cell suspensions through density gradients to obtain mononuclear cells.
# [2] = system: melanoma B16 cancer cells; assay: B16 melanoma tail vein injection, tumor colonies in both lungs; type: in vivo, mice; details: for mean number of tumor colonies observed in both lungs: 1×10^4 B16 cells/mouse, 4 weeks post-injection
# Description: The mice were infected with syngeneic […] melanoma B16 cancer cells by tail vein injection. The dose was 1×10^4 B16 tumor cells/mouse. […] The second group of mice was given their substance P aerosol therapy starting one week after the injection of the B16 cells. The aerosol therapy lasted for one week. Both groups of mice and their corresponding controls (injection with B16 cells and no substance P therapy) were killed at 4 weeks post-injection with B16 cells. The data is presented as the mean number of tumor colonies observed in both lungs.
# [3] = JP-8 dose 0 + SP or antagonist aerosol
# [4] = JP-8 dose 1000 + SP or antagonist aerosol
# [5] = JP-8 dose 1000 + nSP (1 nanomolar substance P)
# [6] = dose printed 100 + nSP (1 nanomolar substance P)
substance,measurement,setting,value
Substance P [SP],BM Cell Number,[1]; [3],9
same,Spleen Cell Number,[1]; [3],30
same,Spleen Weight,[1]; [3],0.10
same,Thymus Cell Number,[1]; [3],18
same,Thymus Weight,[1]; [3],0.04
same,BM Cell Number,[1]; JP-8 dose 250 + SP aerosol,23
same,Spleen Cell Number,[1]; JP-8 dose 250 + SP aerosol,40
same,Spleen Weight,[1]; JP-8 dose 250 + SP aerosol,0.16
same,Thymus Cell Number,[1]; JP-8 dose 250 + SP aerosol,20
same,Thymus Weight,[1]; JP-8 dose 250 + SP aerosol,0.06
same,BM Cell Number,[1]; [4],21
same,LN Cell Number,[1]; [4],5.0
same,Spleen Cell Number,[1]; [4],72
same,Spleen Weight,[1]; [4],0.14
same,Thymus Cell Number,[1]; [4],78
same,Thymus Weight,[1]; [4],0.11
same,BM Cell Number,[1]; [5],31
same,Thymus Cell Number,[1]; [5],78
same,Thymus Weight,[1]; [5],0.04
same,BM Cell Number,[1]; JP-8 dose 2500 + SP aerosol,19
same,LN Cell Number,[1]; JP-8 dose 2500 + SP aerosol,5.0
same,Spleen Cell Number,[1]; JP-8 dose 2500 + SP aerosol,87
same,Spleen Weight,[1]; JP-8 dose 2500 + SP aerosol,0.10
same,Thymus Cell Number,[1]; JP-8 dose 2500 + SP aerosol,96
same,Thymus Weight,[1]; JP-8 dose 2500 + SP aerosol,0.08
same,Spleen Cell Number,[1]; [6],58
same,Spleen Weight,[1]; [6],0.11
same,mean number of tumor colonies observed in both lungs,[2]; 1 μM SP aerosol 15 min/day 7 days starting immediately after injection,39
same,mean number of tumor colonies observed in both lungs,[2]; 1 μM SP aerosol for one week starting one week after injection,1
same,rate of tumor colonization,"[2]; tumor-challenged mammals, aerosol therapy",reduce the rate of tumor colonization
